Measurements published in PMC10970644, “Molecular Pharmacology of Gelsemium Alkaloids on Inhibitory Receptors” (International Journal of Molecular Sciences, 2024).
“Also recorded” adds a separate entry of the source.

How the values were obtained:
α3 GlyR = target: T1, α3 GlyR (Rattus norvegicus, UniProt P24524); test: cell-based; assay type: cell-based
T1 construct: expressed in transfected cells; host or cells: HEK293 (ATCC CRL-1573)
T1 sequence (P24524 34-464): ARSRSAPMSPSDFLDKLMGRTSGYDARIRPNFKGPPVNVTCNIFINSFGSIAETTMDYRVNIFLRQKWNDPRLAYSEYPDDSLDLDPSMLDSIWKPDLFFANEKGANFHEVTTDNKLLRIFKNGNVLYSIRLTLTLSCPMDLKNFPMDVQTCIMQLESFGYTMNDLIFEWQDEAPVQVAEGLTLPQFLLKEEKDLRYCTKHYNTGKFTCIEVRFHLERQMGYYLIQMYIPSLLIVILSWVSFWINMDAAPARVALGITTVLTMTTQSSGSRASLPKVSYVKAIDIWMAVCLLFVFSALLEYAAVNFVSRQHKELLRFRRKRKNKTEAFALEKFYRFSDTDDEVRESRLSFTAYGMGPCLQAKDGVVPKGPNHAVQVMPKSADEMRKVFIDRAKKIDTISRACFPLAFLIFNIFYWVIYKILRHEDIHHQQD
Experimental: (§1) The cells were transfected with plasmids encoding the following proteins: (i). rat GlyR α (1, 2, 3) subunits alone or combined with rat β subunits (Uniprot Accession Numbers: Q546L7, P22771, P20236, P20781); and (ii). rat GABAAR α1 combined with rat β2 and γ2 subunits (Uniprot Accession Numbers: P62813, P63138, P18508). The EGFP expression was used as a marker of successful protein expression. The transfection was performed using Lipofectamine 2000 (Invitrogen, ThermoFisher, Carlsbad, CA, USA) using the fabricant protocol. The plasmids used to express GlyRs and GABAARs have been previously described. To track the successful expression of GlyR β subunits and the GABAA γ2 or β2 subunit, these proteins were subcloned in the pIRES2-EGFP vector. The transfection ratio to obtain β-containing GlyRs was 1:5 of α:β, while the expression of γ2-containing GABAA receptors was 1:2:5 of α:β:γ2 [14, 15]. Chimeric GlyRs were described in a previous report. Site directed mutagenesis was performed by Charm Gene Science Mutagenex LLC. (Cumming, GA, USA). All the constructs were checked by full-length sequencing (SNPSaurus, Eugene, OR, USA).
(§2) In brief, patch electrodes (3–4 MΩ) were pulled from borosilicate glasses in a PC-100 puller (Narishige, Tokyo, Japan); then, they were filled with an intracellular solution, which contained (in mM) 120 CsCl, 8 EGTA, 10 HEPES (pH 7.4), 4 MgCl2, 0.5 GTP, and 2 ATP. The extracellular solution contained (in mM) 140 NaCl, 5.4 KCl, 2.0 CaCl2, 1.0 MgCl2, 10 HEPES (pH 7.4), and 10 glucose. Whole-cell patch-clamp recordings were performed at −60 mV with an Axoclamp 200B (Molecular Devices, Sunnyvale, CA, USA) or with HEKA EPC-10 (HEKA Elektronik GmbH, Reutlingen, Germany) amplifiers. […] Brief (3–5 s) pulses of agonist together with alkaloids were applied to cells. Stock solutions of the alkaloids were prepared in high purity distilled water. Aliquots of these stock solutions were diluted in reservoirs containing extracellular solution. […] The concentration–response curve parameters for the alkaloid inhibition (IC50, nH, and the maximal current inhibition) were obtained from the fitted curve of normalized concentration–response data points to the equation Iagonist = Imax (agonist)nH/((agonist)nH + (EC50)nH). The IC50 curves are best-fit mean ± SE from pooled data. […] The inhibition constant (Ki) was calculated using the Cheng–Prusoff equation (Ki = IC50/((2 + ([Agonist]/EC50)^nH)^1/nH − 1). The concentration of agonist corresponds to the sub-saturating agonist concentration used to obtain the IC50 for each alkaloid on a given GlyR subtype.

α1 GlyR = target: T2, α1 GlyR (Rattus norvegicus, UniProt P07727); test: cell-based; assay type: cell-based
T2 construct: expressed in transfected cells; host or cells: HEK293 (ATCC CRL-1573)
T2 sequence (P07727 29-457): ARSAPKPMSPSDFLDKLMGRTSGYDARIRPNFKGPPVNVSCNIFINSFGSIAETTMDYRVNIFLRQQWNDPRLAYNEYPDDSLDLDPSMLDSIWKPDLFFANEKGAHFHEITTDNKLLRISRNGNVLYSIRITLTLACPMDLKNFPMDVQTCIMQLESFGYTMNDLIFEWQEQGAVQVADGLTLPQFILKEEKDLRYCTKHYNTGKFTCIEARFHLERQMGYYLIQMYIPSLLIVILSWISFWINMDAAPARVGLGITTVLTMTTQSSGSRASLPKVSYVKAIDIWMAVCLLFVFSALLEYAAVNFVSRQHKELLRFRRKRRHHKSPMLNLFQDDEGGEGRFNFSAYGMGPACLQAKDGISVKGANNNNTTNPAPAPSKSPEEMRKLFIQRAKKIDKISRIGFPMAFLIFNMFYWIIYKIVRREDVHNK
Experimental: as §1, §2

α2 GlyR = target: T3, α2 GlyR (Rattus norvegicus, UniProt P22771); test: cell-based; assay type: cell-based
T3 construct: The cells were transfected with plasmids encoding the following proteins; expressed in transfected cells; host or cells: HEK293 (ATCC CRL-1573)
T3 sequence (P22771 28-452): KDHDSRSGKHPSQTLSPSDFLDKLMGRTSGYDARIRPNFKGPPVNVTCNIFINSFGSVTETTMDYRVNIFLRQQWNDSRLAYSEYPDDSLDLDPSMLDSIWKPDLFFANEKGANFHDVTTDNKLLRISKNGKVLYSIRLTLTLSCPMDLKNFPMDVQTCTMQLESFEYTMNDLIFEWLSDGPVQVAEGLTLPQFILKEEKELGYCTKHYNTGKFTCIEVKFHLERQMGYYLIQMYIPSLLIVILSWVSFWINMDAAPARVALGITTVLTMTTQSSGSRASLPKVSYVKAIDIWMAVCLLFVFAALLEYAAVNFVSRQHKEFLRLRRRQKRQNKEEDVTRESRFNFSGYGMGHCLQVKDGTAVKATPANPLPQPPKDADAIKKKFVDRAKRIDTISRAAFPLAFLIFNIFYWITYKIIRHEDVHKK
Experimental: as §1, §2

α2β GlyR = target: T4, α2β GlyR (Rattus norvegicus, UniProt P20781+P22771); test: cell-based; assay type: cell-based
T4 construct: The cells were transfected with plasmids encoding the following proteins; expressed in transfected cells; host or cells: HEK293 (ATCC CRL-1573)
T4 sequence (P20781 23-496, one chain of several): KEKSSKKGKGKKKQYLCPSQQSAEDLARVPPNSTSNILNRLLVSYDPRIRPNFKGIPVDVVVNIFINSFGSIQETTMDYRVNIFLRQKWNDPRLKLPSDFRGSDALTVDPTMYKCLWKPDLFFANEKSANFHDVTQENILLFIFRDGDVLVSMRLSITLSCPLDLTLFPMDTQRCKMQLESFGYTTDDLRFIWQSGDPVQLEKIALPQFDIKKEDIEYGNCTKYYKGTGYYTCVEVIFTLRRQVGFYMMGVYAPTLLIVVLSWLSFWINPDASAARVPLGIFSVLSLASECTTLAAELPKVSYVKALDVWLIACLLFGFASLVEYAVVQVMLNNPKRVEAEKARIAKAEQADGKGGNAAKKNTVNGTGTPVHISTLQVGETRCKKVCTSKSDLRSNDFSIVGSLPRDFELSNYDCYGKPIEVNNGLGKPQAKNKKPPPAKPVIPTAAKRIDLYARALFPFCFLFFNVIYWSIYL
Experimental: as §1, §2

α1β2γ2 GABAARs = target: T5, α1β2γ2 GABAARs (Rattus norvegicus, UniProt P62813+P63138); assay type: cell-based; conditions: 50 μM alkaloid; 1 μM GABA
T5 construct: The cells were transfected with plasmids encoding the following proteins; expressed in transfected cells; host or cells: HEK293 (ATCC CRL-1573)
T5 sequence (P62813 28-455): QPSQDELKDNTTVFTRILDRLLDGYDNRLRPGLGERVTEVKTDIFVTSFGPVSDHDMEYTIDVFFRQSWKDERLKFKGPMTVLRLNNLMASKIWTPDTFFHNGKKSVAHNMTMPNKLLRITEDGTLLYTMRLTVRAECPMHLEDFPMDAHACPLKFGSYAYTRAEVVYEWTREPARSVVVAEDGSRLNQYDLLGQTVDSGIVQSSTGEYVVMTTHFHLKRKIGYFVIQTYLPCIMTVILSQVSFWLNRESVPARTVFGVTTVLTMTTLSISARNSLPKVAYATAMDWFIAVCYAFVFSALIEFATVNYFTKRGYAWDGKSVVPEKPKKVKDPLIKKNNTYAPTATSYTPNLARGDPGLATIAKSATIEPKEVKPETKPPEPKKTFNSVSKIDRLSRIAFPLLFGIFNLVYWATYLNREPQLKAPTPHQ
T5 sequence (P63138 26-474): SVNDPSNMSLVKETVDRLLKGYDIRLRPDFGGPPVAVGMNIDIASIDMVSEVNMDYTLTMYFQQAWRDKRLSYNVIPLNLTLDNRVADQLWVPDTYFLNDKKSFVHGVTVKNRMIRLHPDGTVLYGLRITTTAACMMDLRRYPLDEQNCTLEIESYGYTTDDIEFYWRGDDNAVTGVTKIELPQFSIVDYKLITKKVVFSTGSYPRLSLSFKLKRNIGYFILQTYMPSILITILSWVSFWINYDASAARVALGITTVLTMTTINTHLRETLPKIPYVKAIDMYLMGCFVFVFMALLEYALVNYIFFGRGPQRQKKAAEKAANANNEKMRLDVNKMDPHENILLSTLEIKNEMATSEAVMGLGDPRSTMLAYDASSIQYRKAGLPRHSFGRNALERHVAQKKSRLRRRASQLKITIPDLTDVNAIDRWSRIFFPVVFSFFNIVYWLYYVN
T5 sequence (P18508 39-466 partner): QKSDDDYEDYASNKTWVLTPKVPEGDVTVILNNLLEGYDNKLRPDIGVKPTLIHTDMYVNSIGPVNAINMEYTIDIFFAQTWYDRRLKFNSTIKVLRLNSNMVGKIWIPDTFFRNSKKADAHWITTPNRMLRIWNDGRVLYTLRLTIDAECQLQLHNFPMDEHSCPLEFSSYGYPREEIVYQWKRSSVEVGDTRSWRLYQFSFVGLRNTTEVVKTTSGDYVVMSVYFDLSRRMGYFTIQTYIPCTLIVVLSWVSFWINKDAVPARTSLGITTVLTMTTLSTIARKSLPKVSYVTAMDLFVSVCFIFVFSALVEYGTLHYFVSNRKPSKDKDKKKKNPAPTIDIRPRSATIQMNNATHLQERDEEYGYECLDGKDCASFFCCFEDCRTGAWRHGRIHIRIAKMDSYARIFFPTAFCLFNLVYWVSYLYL
Experimental: as §1
as §2, with “The” for “The inhibition constant (Ki) was calculated using the Cheng–Prusoff equation (Ki = IC50/((2 + ([Agonist]/EC50)^nH)^1/nH − 1). The”

[1] = in vivo studies; cited from earlier work
α3β GlyR = target: T6, α3β GlyR (Rattus norvegicus, UniProt P20781+P24524); test: cell-based; assay type: cell-based
T6 construct: The cells were transfected with plasmids encoding the following proteins; expressed in transfected cells; host or cells: HEK293 (ATCC CRL-1573)
T6 sequence (P20781 23-496, one chain of several): as the sequence (P20781 23-496, one chain of several) above
Experimental: as §1
as §2, with “The” for “The inhibition constant (Ki) was calculated using the Cheng–Prusoff equation (Ki = IC50/((2 + ([Agonist]/EC50)^nH)^1/nH − 1). The”

α1β GlyR = target: T7, α1β GlyR (Rattus norvegicus, UniProt P07727+P20781); test: cell-based
T7 construct: The cells were transfected with plasmids encoding the following proteins; expressed in transfected cells; host or cells: HEK293 (ATCC CRL-1573)
T7 sequence (P20781 23-496, one chain of several): as above
Experimental: as §1, §2

[2] = percentage change of glycine-evoked current

Compound: CCC1=N[C@H]2C[C@@]3(C(=O)N(OC)c4ccccc43)[C@H]3C[C@@H]1[C@@H]2CO3 [humantenmine]
- Maximal Modulation Concentration (α3 GlyR): 0.1 µM
- Maximal Modulation (α3 GlyR; [2]): −20.2 ± 10.7%
- Maximal Modulation Concentration (α1 GlyR): 300 µM
- modulation of glycine-evoked current (α1 GlyR; 300 μM of the alkaloid): −19.2 ± 7.8%
- modulation of α1GlyRs (in words) (α1 GlyR; concentration range of 10 μM to 300 μM): did not display any detectable activity; also recorded: did not significantly modulate
- Maximal Modulation (α1 GlyR; [2]): −19.2 ± 7.8%
- Maximal Modulation Concentration (α2 GlyR): 50 µM
- Maximal Modulation (α2 GlyR; [2]): 8.7 ± 9.6%
- Maximal Modulation Concentration (α2β GlyR): 50 µM
- Maximal Modulation (α2β GlyR; [2]): −10.3 ± 11.2%
- modulation of GABAARs (in words) (α1β2γ2 GABAARs): did not elicit any detectable alterations; also recorded: insensitive
- LD50 [1]: lower than 0.2 mg/kg
- Maximal Modulation Concentration (α3β GlyR): 300 µM
- Maximal Modulation (α3β GlyR; [2]): −15.6 ± 3.8%
- Maximal Modulation Concentration (α1β GlyR): 0.01 µM
- Maximal Modulation (α1β GlyR; [2]): −7.33 ± 10.8%
